Patent publication US11730705B2, “Small molecule CMKLR1 antagonists in inflammatory disease” (The Board of Trustees of the Leland Stanford Junior …, priority 2019, dated 2023)
Read-outs that look alike come from different tables or passages of the source.

How the values were obtained:
CMKLR1 = target: T1, CMKLR1 (Homo sapiens, UniProt Q99788); experiment: β-arrestin recruitment assay (chemerin-mediated β-arrestin2 association with CMKLR1); assay type: cell-based
T1 construct: host or cells: CHO-K1 (PathHunter)
T1 sequence (Q99788 1-373): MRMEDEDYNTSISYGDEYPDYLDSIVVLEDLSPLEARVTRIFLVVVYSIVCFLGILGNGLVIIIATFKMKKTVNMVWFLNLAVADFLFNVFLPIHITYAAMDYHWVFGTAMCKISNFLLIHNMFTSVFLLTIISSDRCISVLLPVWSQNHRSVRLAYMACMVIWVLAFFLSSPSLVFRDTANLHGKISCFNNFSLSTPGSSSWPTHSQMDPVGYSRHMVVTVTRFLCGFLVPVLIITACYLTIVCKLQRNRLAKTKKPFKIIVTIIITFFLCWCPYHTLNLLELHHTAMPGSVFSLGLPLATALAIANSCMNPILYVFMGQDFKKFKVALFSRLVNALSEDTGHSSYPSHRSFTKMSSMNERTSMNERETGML
Description: (§1) FIG. 15A-15D. […] IC50 values were determined based on 6-point dose-response curves for each compound. (FIG. 15A) α-NETA. […] (FIG. 15A-15C) mean±SEM, n=3-18 independent experiments. […] 0.2 ml each compound (in 10% captisol) or vehicle control was administered by oral gavage beginning one day prior to psoriasis induction. Back skin thickness was measured daily and normalized to day 0. mean±SEM, n=10 mice for vehicle and α-NETA groups pooled from two independent trials; n=3 mice for (27) and (6) from one trial.
Cell culture. […] DiscoverX PathHunter® CHO-K1 CMKLR1 β-Arrestin Cells were grown in RPMI lacking phenol red (Gibco, Life Technologies), supplemented with L-glutamine, penicillin-streptomycin, sodium pyruvate, non-essential amino acid, BCS, hygromycin, and G418-sulfate.
β-arrestin recruitment assay. CMKLR1-CHO-β-Arrestin cells were seeded in 96 well plates at 1×10^5 cell/ml-100 ul/well and incubated overnight at 37° C., 5% CO2. The next day, media was removed and cells were pre-incubated in PBS with α-NETA or test compound (95 ul/well) in a 6 point dose response curve from 100 μM to 0.3 μM for 10 min at RT. (α-NETA and test compounds were reconstituted in DMSO; final DMSO concentration in each well was 0.1%). After 10 min, 5 ul of recombinant human chemerin (R&D Systems) at a final concentration of 20 nM was added to each well. Plates were incubated for 90 min at 37° C., 5% CO2. Media was then removed and 50 ul of chemiluminescent substrate (Tropix Gal-Screen, Applied Biosciences) was added. The plate was incubated for 1 hr at RT and luminescence was detected using the SpectraMax M5 plate reader (Molecular Devices). For each independent trial (single replicate dose curves), data was normalized to the maximum signal per compound tested and an IC50 value was generated using GraphPad Prism software. The average IC50 value for n independent trials (as specified in the table) is reported.

EAE in C57BL/6 mice = experiment: EAE induced by MOG35-55/CFA immunization; assay type: in vivo, mouse; details: Table 4, 10 mg/kg daily to D 21, n = 8; for Maximum Score (Mean ± SEM): clinical score 0-5; for AUC (Mean ± SEM): mean clinical score × day
Description: FIG. 1A-1D. […] (FIG. 1D) The integrated clinical score over time for each animal was calculated as area under the curve (AUC).
EAE. […] CFA consisted of 5 mg/ml mTB (Mycobacterium-tuberculosis H37 Ra, BD Difco) in IFA (Incomplete Freund's Adjuvant, Sigma). MOG35-55 was reconstituted at 2 mg/ml in PBS. Mice also received 200 ng pertussis toxin (List Biological Laboratories, Inc) by i.p. injection at the time of immunization and two days later. […] For a direct comparison to α-NETA, the DMF and compound doses were also 10 mg/kg in 10% captisol. Mice were monitored daily for clinical disease and scored (0=normal/healthy, 1=limp tail, 2=hindlimb weakness, 3=hindlimb paralysis, 4=hindlimb and forelimb paralysis, 5=moribund/dead).

[1] = test system: IMQ-induced psoriasis in mice; experiment: IMQ-induced psoriasis model; assay type: in vivo, mouse; details: for clinical features of experimental psoriasis: oral gavage in 10% captisol, FIG. 15D
Description: FIG. 11A-11G. […] Representative images of the same mouse shown over time. […] Mice were treated twice daily with IMQ±dexamethasone (DEX, 200 ug/mouse) 1 h prior to IMQ treatment. […] (FIG. 11G) NK cell (CD45+DX5+CD11b-CD3-CD19-) infiltration into lesional or non-lesional adjacent skin was determined by flow cytometry (6 day timepoint) for IMQ-treated WT and chemerin KO mice. mean±SEM, n=4 mice per genotype, ***p<0.005 by 2-tailed t-test; **p<0.01 by 2-tailed t-test; *p<0.05 by 1-tailed t-test.
FIG. 13A-13D. […] Fold change with respect to day 0 measurements are shown. […] For A-C, n=3 untreated, n=5 IMQ-treated mice of each genotype, mean±SEM, *p<0.05 by 2-tailed t-test.
as §1

(hu)CMKLR1 L1.2 cells = target: T2, (hu)CMKLR1 L1.2 cells (Homo sapiens, UniProt Q99788); experiment: Chemotaxis assay (chemerin-dependent CMKLR1+ cell migration); assay type: cell-based; details: for IC50: Table 3, migration toward huChemerin, 2 h transwell, read-out: Chemotaxis IC50 μM mean ± SEM (n)
T2 construct: expressed in transfected cells; host or cells: L1.2 pre-B cell lymphoma cells
T2 sequence (Q99788 1-373): T1 sequence (Q99788 1-373)
Description: Cell culture. (hu)CMKLR1 transfectants (generated in L1.2 pre-B cell lymphoma cells) were grown in RPMI 1640 (Corning) supplemented with L-glutamine, penicillin-streptomycin, and 10% BCS and G418-sulfate (KSE Scientific). DiscoverX PathHunter® CHO-K1 CMKLR1 β-Arrestin Cells were grown in RPMI lacking phenol red (Gibco, Life Technologies), supplemented with L-glutamine, penicillin-streptomycin, sodium pyruvate, non-essential amino acid, BCS, hygromycin, and G418-sulfate.
Chemotaxis assay. (hu)CMKLR1 L1.2 cells at 1×10^6 cell/ml were treated with 5 mM sodium butyrate (Sigma) overnight to induce hCMKLR1 expression. The next day, cells were washed in migration media (RPMI+0.5% BSA) and resuspended at 1.5-3×10^6 cell/ml. Cells were pre-incubated at RT for 10 min with various concentrations of α-NETA or test compounds (α-NETA and test compounds were reconstituted in DMSO; final DMSO concentration in each well was 0.1%). 100 ul of cells were added to the upper chamber of a 24-well transwell plate (5 um pore size, Costar). Cells were allowed to migrate toward huChemerin ([…] in migration media, bottom chamber) for 2 h, 37° C., 5% CO2. The number of migrated cells was quantified by flow cytometry (BD LSR2), and live cells were distinguished based on FSC×SSC properties. The background for this assay was typically low with 0 cells migrating to the buffer alone. For each independent trial, data was normalized to the maximum migration per compound tested and an IC50 value was generated using GraphPad Prism software. The average IC50 value for n independent trials (as specified in the table) is reported.

[2] = Table 2, tertiary amines, chemerin 20 nM, CHO transfectants, read-out: β-arrestin IC50 μM mean ± SEM (n)
[3] = Table 3, quaternary ammonium salts, chemerin 20 nM, CHO transfectants, read-out: β-arrestin IC50 μM mean ± SEM (n)
[4] = values given in running text b220, read-out: β-arrestin2 assay IC50

SMILES	IC50 (CMKLR1; [2]) [µM]	IC50 (CMKLR1; [3]) [µM]	IC50 ((hu)CMKLR1 L1.2 cells) [µM]	further results
CN(C)CCC(=O)c1cccc2ccccc12 [Compound 3]	18.8			
CCN(C)CCC(=O)c1cccc2ccccc12 [Compound 4]	17.9			
CCN(CC)CCC(=O)c1cccc2ccccc12 [Compound 5]	8.9 ± 2.4			
COc1ccc2ccccc2c1C(=O)CCN(C)C [Compound 6]	6.2 ± 2.5			Maximum Score (Mean ± SEM) (EAE in C57BL/6 mice): 2.4 ± 0.2; AUC (Mean ± SEM) (EAE in C57BL/6 mice): 25.2 ± 4.0; Day of onset (Mean ± SEM) (EAE in C57BL/6 mice): 14.5 ± 0.4; clinical features of experimental psoriasis [1]: suppressed
CN(C)CCC(=O)c1ccc2ccccc2c1 [Compound 7]	18.5			
CCN(CC)CCC(=O)c1ccc2ccccc2c1 [Compound 8]	71.3			
CCN(C)CCC(=O)c1ccc2ccccc2c1 [Compound 9]	39.6			
CCCCN(C)CCC(=O)c1ccc2ccccc2c1 [Compound 10]	44.5			
COc1ccc2cc(C(=O)CCN(C)C)ccc2c1 [Compound 11]	> 100			
CN(C)CCC(=O)c1ccccc1 [Compound 12]	> 100			
CCN(C)CCC(=O)c1ccccc1 [Compound 13]	16.8 ± 8.3			
CCN(CC)CCC(=O)c1ccccc1 [Compound 14]	77.8			
CCCCN(C)CCC(=O)c1ccccc1 [Compound 15]	> 100			
COc1ccccc1C(=O)CCN(C)C [Compound 16]	> 100			
COc1ccc(C(=O)CCN(C)C)cc1 [Compound 17]	> 100			
C[N+](C)(C)CCS(=O)(=O)c1ccccc1.[I-] [Compound 35]				activity in β-arrestin2 assay (CMKLR1): inactive
C[C@@H]1C[C@H]2[C@@H]3CCC4=CC(=O)C=C[C@]4(C)[C@@]3(F)[C@@H](O)C[C@]2(C)[C@@]1(O)C(=O)CO [dexamethasone, reference compound]				percent inhibition of skin thickening ([1]; day 5 post-IMQ, 200 ug/mouse 1 h prior to IMQ): 62±6%

The next lines start with results.

IC50 (CMKLR1; [2]) [µM]	IC50 (CMKLR1; [3]) [µM]	IC50 ((hu)CMKLR1 L1.2 cells) [µM]	SMILES	further results
64			COc1cccc(C(=O)CCN(C)C)c1 [Compound 18]	
10.3 ± 4.5			COc1cccc(OC)c1C(=O)CCN(C)C [Compound 19]	
> 100			CN(C)CCC(=O)C1CCCCC1 [Compound 20]	activity in β-arrestin2 assay (CMKLR1): complete loss of activity
	2.5 ± 0.9	24.1	C[N+](C)(C)CCC(=O)c1ccc2ccccc2c1 [Compound 23]	IC50 (CMKLR1; [4]): 3.1 µM
	5.6 ± 0.7	> 100	C[N+](C)(C)CCC(=O)c1ccccc1 [Compound 24]	activity in β-arrestin2 assay (CMKLR1): showed activity; IC50 (CMKLR1; [4]): 4.3 µM; activity in chemotaxis assay ((hu)CMKLR1 L1.2 cells): did not show any activity
		> 100	C[N+](C)(C)CCC(=O)C1CCCCC1 [Compound 25]	IC50 (CMKLR1; [4]): 11.9 µM
	2.9 ± 1.6	7.2	COc1ccccc1C(=O)CC[N+](C)(C)C [Compound 26]	activity in β-arrestin2 assay (CMKLR1): highly active; activity in chemotaxis assay ((hu)CMKLR1 L1.2 cells): highly active
	1.9 ± 0.2	4.5 ± 1.5	COc1ccc(C(=O)CC[N+](C)(C)C)cc1 [Compound 27]	activity in β-arrestin2 assay (CMKLR1): highly active; activity in chemotaxis assay ((hu)CMKLR1 L1.2 cells): highly active; Maximum Score (Mean ± SEM) (EAE in C57BL/6 mice): 2.1 ± 0.1¶; AUC (Mean ± SEM) (EAE in C57BL/6 mice): 24.3 ± 4.2; Day of onset (Mean ± SEM) (EAE in C57BL/6 mice): 16.0 ± 0.9; clinical features of experimental psoriasis [1]: suppressed
	3.8 ± 1.7	14.6 ± 4.8	COc1cccc(C(=O)CC[N+](C)(C)C)c1 [Compound 28]	
	4.8 ± 1.6	17.4 ± 2.2	COc1ccc(C(=O)CC[N+](C)(C)C)c(OC)c1 [Compound 29]	
	2.1 ± 1.1	6.8	COc1cccc(OC)c1C(=O)CC[N+](C)(C)C.[I-] [Compound 30]	activity in β-arrestin2 assay (CMKLR1): highly active; activity in chemotaxis assay ((hu)CMKLR1 L1.2 cells): highly active
	6 ± 2.2	> 100	COc1cc(OC)cc(C(=O)CC[N+](C)(C)C)c1 [Compound 31]	
	1.5 ± 0.3	20 ± 6.2	COc1ccc2cc(C(=O)CC[N+](C)(C)C)ccc2c1 [Compound 32]	
	0.6 ± 0.3	10.7	COc1ccc2ccccc2c1C(=O)CC[N+](C)(C)C [Compound 33]	
